± gives the expanded uncertainty stated by the source.
Experiment: xn = mol fraction of the nth substance listed
Conditions: 101 kPa, Liquid; for viscosity: Capillary tube (Ostwald / Ubbelohde) method

For CCCCBr [1-bromobutane] + O=[N+]([O-])c1ccccc1, which viscosity (293.15 K, x2 = 0.123) is on record?
Its viscosity is 0.7256 ± 0.0071 mPa·s.

What about the viscosity (293.15 K, x2 = 0.2445) of the same compound?
The viscosity was 0.8243 ± 0.0079 mPa·s.

And the viscosity (293.15 K, x2 = 0.3645)?
The viscosity was 0.9397 ± 0.0089 mPa·s.

And the viscosity (293.15 K, x2 = 0.424)?
The viscosity was 0.9936 ± 0.0094 mPa·s.

What about the viscosity (293.15 K, x2 = 0.542) of the same compound?
Its viscosity is 1.131 ± 0.01 mPa·s.

What about the viscosity (293.15 K, x2 = 0.6585) of the same compound?
The viscosity was 1.281 ± 0.012 mPa·s.

And the viscosity (293.15 K, x2 = 0.7737)?
Its viscosity is 1.477 ± 0.013 mPa·s.

And the viscosity (293.15 K, x2 = 0.8875)?
Its viscosity is 1.703 ± 0.015 mPa·s.

What about the viscosity (293.15 K, x2 = 0.9439) of the same compound?
Its viscosity is 1.835 ± 0.017 mPa·s.

And the mass density (293.15 K, x2 = 0.123)?
The mass density was 1270.9 ± 1.4 kg/m3.

What about the mass density (293.15 K, x2 = 0.2445) of the same compound?
Its mass density is 1262.8 ± 1.4 kg/m3.

And the mass density (293.15 K, x2 = 0.3645)?
The mass density was 1253.7 ± 1.4 kg/m3.

What about the mass density (293.15 K, x2 = 0.424) of the same compound?
Its mass density is 1249.7 ± 1.4 kg/m3.

And the mass density (293.15 K, x2 = 0.542)?
The mass density was 1240.8 ± 1.3 kg/m3.

What about the mass density (293.15 K, x2 = 0.6585) of the same compound?
The mass density was 1229.4 ± 1.3 kg/m3.

What about the mass density (293.15 K, x2 = 0.7737) of the same compound?
Its mass density is 1220.6 ± 1.3 kg/m3.

And the mass density (293.15 K, x2 = 0.8875)?
The mass density was 1211.5 ± 1.3 kg/m3.

And the mass density (293.15 K, x2 = 0.9439)?
Its mass density is 1206.7 ± 1.2 kg/m3.

What about the viscosity (298.15 K, x2 = 0.123) of the same compound?
The viscosity was 0.6851 ± 0.0067 mPa·s.

And the viscosity (298.15 K, x2 = 0.2445)?
Its viscosity is 0.7761 ± 0.0075 mPa·s.

What about the viscosity (298.15 K, x2 = 0.3645) of the same compound?
Its viscosity is 0.8811 ± 0.0084 mPa·s.

What about the viscosity (298.15 K, x2 = 0.424) of the same compound?
Its viscosity is 0.9308 ± 0.0088 mPa·s.

And the viscosity (298.15 K, x2 = 0.542)?
Its viscosity is 1.055 ± 0.0099 mPa·s.

And the viscosity (298.15 K, x2 = 0.6585)?
Its viscosity is 1.19 ± 0.011 mPa·s.

What about the viscosity (298.15 K, x2 = 0.7737) of the same compound?
Its viscosity is 1.364 ± 0.013 mPa·s.

And the viscosity (298.15 K, x2 = 0.8875)?
Its viscosity is 1.566 ± 0.014 mPa·s.

And the viscosity (298.15 K, x2 = 0.9439)?
Its viscosity is 1.682 ± 0.015 mPa·s.

And the mass density (298.15 K, x2 = 0.123)?
The mass density was 1263.5 ± 1.4 kg/m3.

What about the mass density (298.15 K, x2 = 0.2445) of the same compound?
The mass density was 1256.6 ± 1.4 kg/m3.

And the mass density (298.15 K, x2 = 0.3645)?
The mass density was 1247.1 ± 1.4 kg/m3.

And the mass density (298.15 K, x2 = 0.424)?
The mass density was 1244 ± 1.3 kg/m3.

And the mass density (298.15 K, x2 = 0.542)?
Its mass density is 1234.4 ± 1.3 kg/m3.

What about the mass density (298.15 K, x2 = 0.6585) of the same compound?
Its mass density is 1223.8 ± 1.3 kg/m3.

What about the mass density (298.15 K, x2 = 0.7737) of the same compound?
The mass density was 1214.7 ± 1.3 kg/m3.

And the mass density (298.15 K, x2 = 0.8875)?
Its mass density is 1206.6 ± 1.2 kg/m3.

What about the mass density (298.15 K, x2 = 0.9439) of the same compound?
Its mass density is 1201.6 ± 1.2 kg/m3.

And the viscosity (303.15 K, x2 = 0.123)?
The viscosity was 0.6486 ± 0.0064 mPa·s.

What about the viscosity (303.15 K, x2 = 0.2445) of the same compound?
The viscosity was 0.7321 ± 0.0071 mPa·s.

What about the viscosity (303.15 K, x2 = 0.3645) of the same compound?
Its viscosity is 0.828 ± 0.0079 mPa·s.

And the viscosity (303.15 K, x2 = 0.424)?
The viscosity was 0.8743 ± 0.0083 mPa·s.

And the viscosity (303.15 K, x2 = 0.542)?
The viscosity was 0.986 ± 0.0093 mPa·s.

What about the viscosity (303.15 K, x2 = 0.6585) of the same compound?
The viscosity was 1.109 ± 0.01 mPa·s.

What about the viscosity (303.15 K, x2 = 0.7737) of the same compound?
The viscosity was 1.266 ± 0.012 mPa·s.

What about the viscosity (303.15 K, x2 = 0.8875) of the same compound?
The viscosity was 1.447 ± 0.013 mPa·s.

And the viscosity (303.15 K, x2 = 0.9439)?
Its viscosity is 1.548 ± 0.014 mPa·s.

And the mass density (303.15 K, x2 = 0.123)?
The mass density was 1256.5 ± 1.4 kg/m3.

And the mass density (303.15 K, x2 = 0.2445)?
Its mass density is 1249.8 ± 1.4 kg/m3.

What about the mass density (303.15 K, x2 = 0.3645) of the same compound?
The mass density was 1240.8 ± 1.3 kg/m3.

And the mass density (303.15 K, x2 = 0.424)?
Its mass density is 1238 ± 1.3 kg/m3.

What about the mass density (303.15 K, x2 = 0.542) of the same compound?
Its mass density is 1228.2 ± 1.3 kg/m3.

And the mass density (303.15 K, x2 = 0.6585)?
The mass density was 1218.5 ± 1.3 kg/m3.

And the mass density (303.15 K, x2 = 0.7737)?
The mass density was 1209.9 ± 1.2 kg/m3.

What about the mass density (303.15 K, x2 = 0.8875) of the same compound?
Its mass density is 1201.6 ± 1.2 kg/m3.

What about the mass density (303.15 K, x2 = 0.9439) of the same compound?
The mass density was 1196.5 ± 1.2 kg/m3.

And the viscosity (308.15 K, x2 = 0.123)?
The viscosity was 0.615 ± 0.0061 mPa·s.

What about the viscosity (308.15 K, x2 = 0.2445) of the same compound?
Its viscosity is 0.692 ± 0.0068 mPa·s.

What about the viscosity (308.15 K, x2 = 0.3645) of the same compound?
The viscosity was 0.7802 ± 0.0075 mPa·s.

What about the viscosity (308.15 K, x2 = 0.424) of the same compound?
Its viscosity is 0.8225 ± 0.0079 mPa·s.

What about the viscosity (308.15 K, x2 = 0.542) of the same compound?
Its viscosity is 0.925 ± 0.0088 mPa·s.

And the viscosity (308.15 K, x2 = 0.6585)?
Its viscosity is 1.037 ± 0.0097 mPa·s.

And the viscosity (308.15 K, x2 = 0.7737)?
Its viscosity is 1.18 ± 0.011 mPa·s.

And the viscosity (308.15 K, x2 = 0.8875)?
The viscosity was 1.34 ± 0.012 mPa·s.

What about the viscosity (308.15 K, x2 = 0.9439) of the same compound?
The viscosity was 1.43 ± 0.013 mPa·s.

And the mass density (308.15 K, x2 = 0.123)?
The mass density was 1249 ± 1.4 kg/m3.

What about the mass density (308.15 K, x2 = 0.2445) of the same compound?
Its mass density is 1242.4 ± 1.3 kg/m3.

And the mass density (308.15 K, x2 = 0.3645)?
The mass density was 1234.3 ± 1.3 kg/m3.

What about the mass density (308.15 K, x2 = 0.424) of the same compound?
The mass density was 1230.7 ± 1.3 kg/m3.

What about the mass density (308.15 K, x2 = 0.542) of the same compound?
Its mass density is 1222.2 ± 1.3 kg/m3.

And the mass density (308.15 K, x2 = 0.6585)?
The mass density was 1212.4 ± 1.3 kg/m3.

What about the mass density (308.15 K, x2 = 0.7737) of the same compound?
The mass density was 1205.1 ± 1.2 kg/m3.

And the mass density (308.15 K, x2 = 0.8875)?
The mass density was 1196 ± 1.2 kg/m3.

What about the mass density (308.15 K, x2 = 0.9439) of the same compound?
Its mass density is 1191.2 ± 1.2 kg/m3.

— the NIST ThermoML archive (doi:10.1021/je200350a)
